Reference: ChEMBL document CHEMBL2384999, “Discovery of a potent, dual serotonin and norepinephrine reuptake inhibitor” (ACS Med Chem Lett, 2013)
Blank lines part the entries; values can stand above or below the molecule they belong to. The source made the active and inactive calls. The calls are words filed in the database; no cut-off is given here.

Experiments:
[1] = biological target: T1, Sodium-dependent serotonin transporter (Homo sapiens, UniProt P31645); experiment: biochemical; assay type: cell-based, HEK293
Target sequence in this assay (P31645 whole entry): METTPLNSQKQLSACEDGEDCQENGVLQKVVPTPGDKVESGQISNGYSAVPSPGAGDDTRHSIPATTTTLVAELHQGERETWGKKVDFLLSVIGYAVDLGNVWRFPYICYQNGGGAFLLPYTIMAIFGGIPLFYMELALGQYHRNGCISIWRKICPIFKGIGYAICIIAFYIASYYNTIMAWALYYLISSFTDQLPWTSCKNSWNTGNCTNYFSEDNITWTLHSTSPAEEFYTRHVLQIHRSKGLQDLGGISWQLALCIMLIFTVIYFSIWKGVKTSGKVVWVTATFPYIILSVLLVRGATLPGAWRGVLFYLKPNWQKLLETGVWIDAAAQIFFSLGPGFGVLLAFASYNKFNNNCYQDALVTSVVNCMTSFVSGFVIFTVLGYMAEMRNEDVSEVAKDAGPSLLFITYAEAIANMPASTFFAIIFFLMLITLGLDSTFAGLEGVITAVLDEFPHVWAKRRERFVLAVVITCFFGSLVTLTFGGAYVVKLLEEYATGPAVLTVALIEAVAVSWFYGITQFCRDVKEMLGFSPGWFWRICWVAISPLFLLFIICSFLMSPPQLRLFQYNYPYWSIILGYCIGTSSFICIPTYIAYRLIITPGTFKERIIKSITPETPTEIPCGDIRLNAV
Description: Displacement of [3H]citalopram from human SERT transfected in HEK293 cells after 3 hrs by Wallac counting analysis

[2] = biological target: Sodium-dependent dopamine transporter (Homo sapiens, UniProt Q01959); experiment: biochemical
Sodium-dependent dopamine transporter, sequence (Q01959 whole entry): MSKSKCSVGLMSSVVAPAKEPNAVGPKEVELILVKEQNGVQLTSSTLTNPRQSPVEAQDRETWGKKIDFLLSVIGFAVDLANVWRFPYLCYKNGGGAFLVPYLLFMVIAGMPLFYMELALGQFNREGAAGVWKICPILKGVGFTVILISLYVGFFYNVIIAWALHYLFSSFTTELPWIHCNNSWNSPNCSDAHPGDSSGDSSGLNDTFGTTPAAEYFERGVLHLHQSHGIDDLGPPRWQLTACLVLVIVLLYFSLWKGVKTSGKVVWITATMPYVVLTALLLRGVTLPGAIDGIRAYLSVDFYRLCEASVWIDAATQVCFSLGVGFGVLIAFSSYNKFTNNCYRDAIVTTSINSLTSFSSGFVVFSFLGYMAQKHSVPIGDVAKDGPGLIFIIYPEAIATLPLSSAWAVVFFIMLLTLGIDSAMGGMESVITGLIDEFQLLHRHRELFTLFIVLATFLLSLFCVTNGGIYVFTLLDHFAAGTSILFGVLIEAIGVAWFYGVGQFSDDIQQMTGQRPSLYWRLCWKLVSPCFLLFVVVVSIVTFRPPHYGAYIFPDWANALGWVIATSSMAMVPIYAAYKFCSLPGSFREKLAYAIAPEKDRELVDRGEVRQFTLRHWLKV
Description: Displacement of [3H]WIN35428 from human DAT transfected in HEK293 cells after 3 hrs by Wallac counting analysis

Rattus norvegicus [3] = conditions: Sprague-Dawley
Description: (§1) In vivo SERT receptor occupancy in po dosed Sprague-Dawley rat brain cortex after 2 hrs in presence of DASB

Rattus norvegicus [4] = test system: Rattus norvegicus
[5] = biological target: T1, Sodium-dependent serotonin transporter; experiment: Inhibition of human SERT transfected in HEK293 cells assessed as inhibition of [3H]serotonin uptake incubated 30 mins prior to substrate addition measured after 1 minute 50 secs; assay type: cell-based
Target sequence in this assay (P31645 whole entry, looked up): as the sequence (P31645 whole entry) above

Cytochrome P450 1A2 = biological target: T2, Cytochrome P450 1A2 (Homo sapiens, UniProt P05177); experiment: Inhibition of CYP1A2 (unknown origin); assay type: ADME
T2 sequence (P05177 whole entry): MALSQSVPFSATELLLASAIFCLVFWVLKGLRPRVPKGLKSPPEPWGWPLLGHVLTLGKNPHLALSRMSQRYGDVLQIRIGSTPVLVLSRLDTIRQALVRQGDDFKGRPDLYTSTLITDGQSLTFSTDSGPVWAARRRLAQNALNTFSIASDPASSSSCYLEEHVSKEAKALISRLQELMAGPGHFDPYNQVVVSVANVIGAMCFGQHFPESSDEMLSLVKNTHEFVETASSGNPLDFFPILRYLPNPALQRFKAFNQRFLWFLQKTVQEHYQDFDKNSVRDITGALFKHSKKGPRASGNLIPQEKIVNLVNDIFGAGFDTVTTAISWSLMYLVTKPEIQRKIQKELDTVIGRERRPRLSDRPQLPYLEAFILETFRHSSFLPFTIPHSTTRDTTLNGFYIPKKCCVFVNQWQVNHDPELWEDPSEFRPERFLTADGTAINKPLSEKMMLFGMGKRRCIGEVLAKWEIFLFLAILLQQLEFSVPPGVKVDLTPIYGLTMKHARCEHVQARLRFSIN

CYP2C9 = CYP2C9 (Homo sapiens, UniProt P11712); experiment: Inhibition of CYP2C9 (unknown origin) at 10 uM; assay type: ADME
CYP2C9, sequence (P11712 whole entry): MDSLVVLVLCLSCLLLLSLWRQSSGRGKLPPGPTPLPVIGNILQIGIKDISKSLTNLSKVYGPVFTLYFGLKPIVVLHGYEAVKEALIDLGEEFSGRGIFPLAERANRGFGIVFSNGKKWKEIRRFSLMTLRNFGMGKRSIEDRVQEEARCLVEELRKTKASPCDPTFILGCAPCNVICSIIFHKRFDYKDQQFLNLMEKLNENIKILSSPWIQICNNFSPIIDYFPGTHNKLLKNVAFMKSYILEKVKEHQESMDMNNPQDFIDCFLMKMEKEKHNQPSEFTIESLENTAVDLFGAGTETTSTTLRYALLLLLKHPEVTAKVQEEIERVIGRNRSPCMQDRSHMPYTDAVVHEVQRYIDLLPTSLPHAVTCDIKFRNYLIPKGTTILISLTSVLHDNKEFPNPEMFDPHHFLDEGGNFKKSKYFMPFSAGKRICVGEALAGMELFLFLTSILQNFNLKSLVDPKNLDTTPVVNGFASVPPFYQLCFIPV

[6] = Oral bioavailability in rat at 1 mg/kg; assay type: ADME, organism-based; conditions: in vivo
[7] = Half life in rat at 1 mg/kg, iv; assay type: ADME, organism-based; set-up: dose 1 mg/kg, route intravenous; conditions: in vivo
[8] = Tmax in dog at 1 mg/kg, po; assay type: ADME, organism-based, Canis lupus familiaris; set-up: dose 1 mg/kg, route oral; conditions: in vivo
[9] = Volume of distribution at steady state in dog at 1 mg/kg, iv; assay type: ADME, organism-based, Canis lupus familiaris; set-up: dose 1 mg/kg, route intravenous; conditions: in vivo, read-out: Vdss
[10] = Metabolic stability in human liver microsomes after 30 mins by LC-ESI/MS analysis; assay type: ADME, Microsome; conditions: read-out: Stability
CYP3A4 = CYP3A4 (Homo sapiens, UniProt P08684); experiment: Inhibition of CYP3A4 (unknown origin) at 10 uM; assay type: ADME
CYP3A4, sequence (P08684 whole entry): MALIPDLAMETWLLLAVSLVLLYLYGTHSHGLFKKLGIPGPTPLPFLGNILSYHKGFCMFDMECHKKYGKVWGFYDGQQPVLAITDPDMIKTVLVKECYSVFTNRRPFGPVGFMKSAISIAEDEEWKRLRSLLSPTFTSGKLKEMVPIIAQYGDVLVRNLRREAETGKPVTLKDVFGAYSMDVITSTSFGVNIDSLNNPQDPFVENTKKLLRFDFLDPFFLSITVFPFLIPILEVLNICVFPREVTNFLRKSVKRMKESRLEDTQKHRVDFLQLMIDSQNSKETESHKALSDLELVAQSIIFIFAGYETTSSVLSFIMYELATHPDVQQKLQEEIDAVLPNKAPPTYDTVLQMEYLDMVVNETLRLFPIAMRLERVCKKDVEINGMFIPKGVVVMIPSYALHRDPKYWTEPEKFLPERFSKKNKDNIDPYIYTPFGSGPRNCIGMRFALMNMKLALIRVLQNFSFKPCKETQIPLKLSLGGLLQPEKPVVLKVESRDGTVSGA

Rattus norvegicus [11] = experiment: Neurotoxicity in Sprague-Dawley rat at 100 mg/kg, po by rotorod test; assay type: toxicity, organism-based; set-up: dose 100 mg/kg, route oral; conditions: in vivo
[12] = Clearance in rat at 1 mg/kg, iv; assay type: ADME, organism-based; set-up: dose 1 mg/kg, route intravenous; conditions: in vivo
Plasma = experiment: Drug uptake in Sprague-Dawley rat plasma at 10 mg/kg, po; assay type: ADME, organism-based; set-up: dose 10 mg/kg, route oral; conditions: in vivo
[13] = Metabolic stability in dog liver microsomes after 30 mins by LC-ESI/MS analysis; assay type: ADME, Canis lupus familiaris, Microsome; conditions: read-out: Stability
[14] = Cmax in dog at 1 mg/kg, po; assay type: ADME, organism-based, Canis lupus familiaris; set-up: dose 1 mg/kg, route oral; conditions: in vivo
[15] = AUC (0 to infinity) in dog at 1 mg/kg, po; assay type: ADME, organism-based, Canis lupus familiaris; set-up: time infinity, dose 1 mg/kg, route oral; conditions: plasma
[16] = Serum protein binding in human; assay type: ADME, cell-free; conditions: read-out: PB (converted)
[17] = AUC (0 to infinity) in dog at 1 mg/kg, iv; assay type: ADME, organism-based, Canis lupus familiaris; set-up: dose 1 mg/kg, route intravenous, time infinity; conditions: plasma
[18] = AUC (0 to infinity) in rat at 1 mg/kg, po; assay type: ADME, organism-based; set-up: time infinity, dose 1 mg/kg, route oral; conditions: plasma
[19] = biological target: Sodium-dependent serotonin transporter (Rattus norvegicus, UniProt P31652)
Sodium-dependent serotonin transporter (Rattus norvegicus, UniProt P31652), sequence (P31652 whole entry): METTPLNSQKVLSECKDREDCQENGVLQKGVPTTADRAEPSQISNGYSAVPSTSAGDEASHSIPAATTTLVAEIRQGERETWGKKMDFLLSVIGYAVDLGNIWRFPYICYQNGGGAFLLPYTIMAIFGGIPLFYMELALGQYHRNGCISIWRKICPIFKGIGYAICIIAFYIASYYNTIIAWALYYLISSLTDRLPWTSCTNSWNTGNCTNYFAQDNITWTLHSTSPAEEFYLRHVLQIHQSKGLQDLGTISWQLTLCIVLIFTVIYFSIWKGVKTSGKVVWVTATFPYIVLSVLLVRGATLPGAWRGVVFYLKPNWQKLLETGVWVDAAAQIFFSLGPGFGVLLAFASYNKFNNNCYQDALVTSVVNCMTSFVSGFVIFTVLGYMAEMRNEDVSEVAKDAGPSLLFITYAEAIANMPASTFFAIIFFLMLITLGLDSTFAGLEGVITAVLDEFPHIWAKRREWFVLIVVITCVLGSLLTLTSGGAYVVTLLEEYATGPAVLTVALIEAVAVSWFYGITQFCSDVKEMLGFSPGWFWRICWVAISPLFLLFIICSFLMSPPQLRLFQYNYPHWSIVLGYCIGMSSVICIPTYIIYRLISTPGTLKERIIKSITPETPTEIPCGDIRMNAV
Description: Displacement of [3H]-citalopram from Sprague-Dawley rat brain SERT after 1 hr

[20] = Cmax in rat at 1 mg/kg, po; assay type: ADME, organism-based; set-up: dose 1 mg/kg, route oral; conditions: in vivo
Cytochrome P450 2C9 = Cytochrome P450 2C9 (Homo sapiens, UniProt P11712); experiment: Inhibition of CYP2C9 (unknown origin); assay type: ADME
Cytochrome P450 2C9, sequence (P11712 whole entry): as the sequence (P11712 whole entry) above

[21] = Clearance in dog at 1 mg/kg, iv; assay type: ADME, organism-based, Canis lupus familiaris; set-up: dose 1 mg/kg, route intravenous; conditions: in vivo
Cytochrome P450 2D6 = Cytochrome P450 2D6 (Homo sapiens, UniProt P10635); experiment: Inhibition of CYP2D6 (unknown origin); assay type: ADME
Cytochrome P450 2D6, sequence (P10635 whole entry): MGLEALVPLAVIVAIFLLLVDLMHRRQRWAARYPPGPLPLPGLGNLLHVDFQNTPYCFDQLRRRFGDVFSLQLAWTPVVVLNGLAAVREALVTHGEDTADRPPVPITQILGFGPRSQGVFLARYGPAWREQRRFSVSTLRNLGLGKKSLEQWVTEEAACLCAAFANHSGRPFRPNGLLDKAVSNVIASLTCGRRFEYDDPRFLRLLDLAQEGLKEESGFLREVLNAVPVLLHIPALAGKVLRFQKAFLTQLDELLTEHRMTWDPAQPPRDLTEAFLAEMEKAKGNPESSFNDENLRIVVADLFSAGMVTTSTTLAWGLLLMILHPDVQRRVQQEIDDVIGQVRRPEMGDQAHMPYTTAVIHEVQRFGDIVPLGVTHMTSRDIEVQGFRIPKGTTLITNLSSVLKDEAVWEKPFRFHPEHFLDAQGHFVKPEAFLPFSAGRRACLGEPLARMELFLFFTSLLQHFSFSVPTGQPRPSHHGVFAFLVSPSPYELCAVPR

[22] = Oral bioavailability in dog at 1 mg/kg; assay type: ADME, organism-based, Canis lupus familiaris; conditions: in vivo
CYP2D6 = CYP2D6 (Homo sapiens, UniProt P10635); experiment: Inhibition of CYP2D6 (unknown origin) at 10 uM; assay type: ADME
CYP2D6, sequence (P10635 whole entry): as above

[23] = Ratio of drug uptake in brain to plasma in Sprague-Dawley rat at 10 mg/kg, po; assay type: ADME, organism-based; set-up: dose 10 mg/kg, route oral; conditions: read-out: BPR
Brain = experiment: Drug uptake in Sprague-Dawley rat brain at 10 mg/kg, po; assay type: ADME, organism-based; set-up: dose 10 mg/kg, route oral; conditions: in vivo, read-out: Drug uptake
[24] = Half life in dog at 1 mg/kg, iv; assay type: ADME, organism-based, Canis lupus familiaris; set-up: dose 1 mg/kg, route intravenous; conditions: in vivo
Rattus norvegicus [25] = species on record: Rattus norvegicus; experiment: animal or person; conditions: po
Rattus norvegicus [26] = species on record: Rattus norvegicus; experiment: animal or person; conditions: Sprague-Dawley, po, 2 h
Description: as §1

[27] = Volume of distribution at steady state in rat at 1 mg/kg, iv; assay type: ADME, organism-based; set-up: dose 1 mg/kg, route intravenous; conditions: in vivo, read-out: Vdss
[28] = Tmax in rat at 1 mg/kg, po; assay type: ADME, organism-based; set-up: dose 1 mg/kg, route oral; conditions: in vivo
[29] = AUC (0 to infinity) in rat at 1 mg/kg, iv; assay type: ADME, organism-based; set-up: time infinity, dose 1 mg/kg, route intravenous; conditions: plasma
[30] = Metabolic stability in rat liver microsomes after 30 mins by LC-ESI/MS analysis; assay type: ADME, Microsome; conditions: read-out: Stability
Cytochrome P450 3A4 = Cytochrome P450 3A4 (Homo sapiens, UniProt P08684); experiment: Inhibition of CYP3A4 (unknown origin); assay type: ADME
Cytochrome P450 3A4, sequence (P08684 whole entry): as the sequence (P08684 whole entry) above

SMILES: COc1ccc(O[C@@H](CC(C)C)[C@H]2CCNC2)c(C)n1 (stereo in doubt; form 1)
Ki [1]: 0.22 nM
Ki [2]: 475 nM

SMILES: COc1ccc(O[C@@H](CC(C)C)[C@H]2CCNC2)c(C)n1 [listing 1 of 2 here]
Activity (Rattus norvegicus [3]): Dose-dependent effect
inhibition (Rattus norvegicus [4]): Dose-dependent effect
inhibition [5]: Active

Ki [1]: 0.84 nM
Ki [2]: > 890 nM
SMILES: COc1ccc(O[C@@H](CC(C)C)[C@@H]2CCNC2)c(C)n1

SMILES: COc1ccc(O[C@@H](CC(C)C)[C@H]2CCNC2)c(C)n1 (stereo in doubt; form 2)
Ki [1]: 0.21 nM
Ki [2]: 354 nM

Ki [1]: 0.75 nM
Ki [2]: > 890 nM
SMILES: COc1ccc(O[C@H](CC(C)C)[C@@H]2CCNC2)c(C)n1

SMILES: COc1ccc(O[C@@H](CC(C)C)[C@H]2CCNC2)c(C)n1 [listing 2 of 2 here]
IC50 (Cytochrome P450 1A2): > 10000 nM
inhibition at 10 µM (CYP2C9): < 30%
bioavailability [6]: 31%
half-life [7]: 0.84 h
Tmax [8]: 1.3 h
Vd [9]: 1.8 L/kg
remaining at 0.5 h [10]: 28%
inhibition at 10 µM (CYP3A4): < 30%
Activity (Rattus norvegicus [11]): Non-toxic
clearance [12]: 120 mL/min/kg
concentration (Plasma): 146 nM
remaining at 0.5 h [13]: 57%
Cmax [14]: 503 nM
AUC(0-inf) [15]: 4.13 µM·h
fraction unbound [16]: 0.43
AUC(0-inf) [17]: 8.09 µM·h
AUC(0-inf) [18]: 0.251 µM·h
Ki [19]: 0.16 nM
Cmax [20]: 65 nM
IC50 (Cytochrome P450 2C9): > 10000 nM
clearance [21]: 8.2 mL/min/kg
IC50 (Cytochrome P450 2D6): > 10000 nM
IC50 [1]: 1.9 nM
bioavailability [22]: 47%
inhibition at 10 µM (CYP2D6): < 30%
Kp [23]: 3
concentration (Brain): 450 nM
half-life [24]: 4.6 h
ED80 (Rattus norvegicus [25]): 6.8 mg/kg
ED80 (Rattus norvegicus [26]): 10.6 mg/kg
Vd [27]: 7.6 L/kg
Tmax [28]: 1.3 h
AUC(0-inf) [29]: 0.6 µM·h
remaining at 0.5 h [30]: 92%
IC50 (Cytochrome P450 3A4): > 10000 nM

Ki [2]: > 890 nM
SMILES: COc1ccc(O[C@H](CC(C)C)[C@H]2CCNC2)c(C)n1

SMILES: CCN(CC)C(=O)C1(c2ccccc2)CC1CN (stereo not drawn)
Ki [19]: 27 nM
